Tests used:
retnoid X receptor α = test: Brain gene expression (TLDA qPCR); type: in vivo, rat; details: 15 wk diet; control diet = 1
Summary of the method: (§1)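 First, brainstem, cerebellum, cortex, hippocampus, striatum and rest of brain were cut from frozen half brains of rats at 15 weeks postweaning. Next, RNA was isolated with Trizol and 1 μg converted to cDNA. Finally, 50 ng cDNA was quantified by TaqMan TLDA qPCR against phosphoglycerate kinase 1.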

TNF-α receptor member 1a = test: Brain gene expression (TLDA qPCR); type: in vivo, rat; details: 15 wk diet; control diet = 1
Summary of the method: as §1

[1] = system: epidermal growth factor receptor; test: Brain gene expression (TLDA qPCR); type: in vivo, rat; details: 15 wk diet; control diet = 1
Summary of the method: as §1

[2] = rats; cited from earlier work
[3] = Whole body fatty acids by GC-FID, balance study; type: in vivo, rat; details: 15 wk diet
Method: Carcasses were thawed overnight in a refrigerator at 3°C, cut into pieces, and passed through a #12 hand grinder. After the whole body had passed through the grinder once, the homogenate was mixed together by hand and passed at least one more time through the grinder until the mixture was sufficiently homogeneous. Due to the small size of the pups all of the 21-day-old pup bodies were passed through the grinder together.
A portion of the whole body homogenate was weighed and further homogenized (done in duplicate for each 18-week-old rat and the baseline homogenate) using a Polytron benchtop homogenizer (Brinkman Instruments, Toronto, ON, Canada) in a mixture of chloroform:methanol:0.88%KCl (2:1:0.8 by volume) ([28]). The mixture was centrifuged at 500 g for 10 min, and the chloroform layer was extracted. New chloroform was added to the remaining aqueous phase, the mixture was once again centrifuged, and the chloroform layer was extracted and added to the previously extracted chloroform layer. This total lipid extract (TLE) was evaporated under N2, reconstituted in a known volume of chloroform, and stored under N2 at −80°C until further analysis.
A known amount of heptadecanoic acid (17:0; Nu-Check Prep, Elysian, MN) was added to the TLE. Samples were transmethylated using 14% boron trifluoride in methanol at 100°C for 1 h. Fatty acid methyl esters (FAMEs) were extracted with hexane and quantified using GC-FID. FAMEs were analyzed using a Varian-430 gas chromatograph (Varian, Lake Forest, CA) equipped with a Varian FactorFour capillary column (VF-23ms; 30 m × 0.25 mm interior diameter × 0.25 μm film thickness) and a FID. Samples were injected in splitless mode. The injector and detector ports were set at 250°C. […] The carrier gas was helium, set to a constant flow rate of 0.7 ml/min. Peaks were identified by retention times of authentic FAME standards (Nu-Chek Prep). The concentration of each fatty acid was calculated by comparison with the internal standard (17:0) ([29]). The concentrations were expressed on a per gram basis then multiplied by total weight of the tissue to determine the total amount of each fatty acid in the tissue.

## CC/C=C\C/C=C\C/C=C\C/C=C\C/C=C\C/C=C\CCC(=O)O [DHA, Docosahexaenoic acid]
Retnoid X receptor α
  Brainstem gene expression: RXRa: 1.02 RQ
  Cerebellum gene expression: RXRa: 0.98 RQ
  Cortex gene expression: RXR a: 1.03 RQ
  Hippocampus gene expression: RXR a: 1.10 RQ
  Rest of brain gene expression: RXR a: 1.17 RQ
  Striatum gene expression: RXRa: 1.02 RQ
TNF-α receptor member 1a
  Brainstem gene expression: TNFaR1a: 1.21 RQ
  Cerebellum gene expression: TNFaR1a: 0.96 RQ
  Cortex gene expression: TNFaR1a: 1.10 RQ
  Hippocampus gene expression: TNFa R 1a: 0.99 RQ
  Rest of brain gene expression: TNFaR1a: 1.06 RQ
  Striatum gene expression: TNFaR1a: 0.88 RQ
[1]
  Brainstem gene expression: EGFR: 1.14 RQ
  Cerebellum gene expression: EGFR: 0.96 RQ
  Cortex gene expression: EGFR: 0.99 RQ
  Hippocampus gene expression: EGFR: 1.04 RQ
  Rest of brain gene expression: EGFR: 1.08 RQ
  Striatum gene expression: EGFR: 0.82 RQ

## CC/C=C\C/C=C\C/C=C\CCCCCCCC(=O)O [ALA, α-linolenic acid]
[2]
  DHA synthesis rate from ALA (steady-state infusion): 9.8 µmol/day
Retnoid X receptor α
  Brainstem gene expression: RXRa: 0.99 RQ
  Cerebellum gene expression: RXRa: 1.15 RQ
  Cortex gene expression: RXR a: 1.02 RQ
  Hippocampus gene expression: RXR a: 1.08 RQ
  Rest of brain gene expression: RXR a: 1.05 RQ
  Striatum gene expression: RXRa: 1.14 RQ
TNF-α receptor member 1a
  Brainstem gene expression: TNFaR1a: 1.30 RQ
  Cerebellum gene expression: TNFaR1a: 1.12 RQ
  Cortex gene expression: TNFaR1a: 1.11 RQ
  Hippocampus gene expression: TNFa R 1a: 1.14 RQ
  Rest of brain gene expression: TNFaR1a: 0.95 RQ
  Striatum gene expression: TNFaR1a: 0.98 RQ
[1]
  Brainstem gene expression: EGFR: 1.05 RQ
  Cerebellum gene expression: EGFR: 1.26 RQ
  Cortex gene expression: EGFR: 0.94 RQ
  Hippocampus gene expression: EGFR: 1.10 RQ
  Rest of brain gene expression: EGFR: 1.06 RQ
  Striatum gene expression: EGFR: 1.00 RQ
[3]
  Whole body fatty acids: 12:0: 23532 µmol
  Whole body fatty acids: 14:0: 17606 µmol
  Whole body fatty acids: 14:1n-7: 1331 µmol
  Whole body fatty acids: 16:0: 44604 µmol
  Whole body fatty acids: 16:1n-7: 16111 µmol
  Whole body fatty acids: 18:0: 6101 µmol
  Whole body fatty acids: 18:1n-7: 7553 µmol
  Whole body fatty acids: 18:1n-9: 38781 µmol
  Whole body fatty acids: 18:2n-6: 29104 µmol
  Whole body fatty acids: 18:3n-3: 1557 µmol
  Whole body fatty acids: 18:3n-6: 67 µmol
  Whole body fatty acids: 20:1n-9: 189 µmol
  Whole body fatty acids: 20:2: 194 µmol
  Whole body fatty acids: 20:3n-3: 137 µmol
  Whole body fatty acids: 22:4n-6: 155 µmol
  Whole body fatty acids: 22:5n-3: 101 µmol
  Whole body fatty acids: 22:5n-6: 124 µmol
  Whole body fatty acids: ARA (20:4n-6): 1954 µmol
  Whole body fatty acids: DHA (22:6n-3): 481 µmol
  Whole body fatty acids: EPA (20:5n-3): 76 µmol

— paper PMC3927474, “Whole body synthesis rates of DHA from α-linolenic acid are greater than brain DHA accretion and uptake rates in adult rats” (Journal of Lipid Research, 2014)
